Experimental data taken from patent publication US20130324522A1, “INSECT ODORANT RECEPTOR ANTAGONISTS” (THE ROCKEFELLER UNIVERSITY, priority 2010, published 2013).
Where two headings read alike, the source gives them in different places.

Assays:
Or47a/Or83b = biological target: T1, Or47a/Or83b (Drosophila melanogaster, UniProt P81921+Q9VNB5); test: Ca2+-imaging of stable Flip-In T-Rex cell line Or47a/Or83b; type: cell-based; settings: for inhibition at 4 µM: read-out: Percent Inhibition OR47a OR83b
T1 construct: Full-length cDNAs for mosquito (Anopheles gambiae) odorant receptor (OR1, OR2, OR7, OR8, OR28), and fly (Drosophila melanogaster) odorant receptor (Or47a, Or83b); expressed in transfected cells
T1 sequence (P81921 1-385): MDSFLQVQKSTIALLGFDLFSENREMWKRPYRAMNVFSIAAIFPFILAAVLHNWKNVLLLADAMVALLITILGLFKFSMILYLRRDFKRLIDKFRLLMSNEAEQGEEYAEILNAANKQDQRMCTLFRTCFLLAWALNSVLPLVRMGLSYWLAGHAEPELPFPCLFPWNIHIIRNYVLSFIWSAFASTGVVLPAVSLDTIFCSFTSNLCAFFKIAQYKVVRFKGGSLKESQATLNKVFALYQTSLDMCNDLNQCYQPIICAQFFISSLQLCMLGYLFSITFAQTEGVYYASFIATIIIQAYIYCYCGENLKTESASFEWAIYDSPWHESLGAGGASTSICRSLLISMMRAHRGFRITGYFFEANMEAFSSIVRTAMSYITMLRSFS
T1 sequence (Q9VNB5 1-486): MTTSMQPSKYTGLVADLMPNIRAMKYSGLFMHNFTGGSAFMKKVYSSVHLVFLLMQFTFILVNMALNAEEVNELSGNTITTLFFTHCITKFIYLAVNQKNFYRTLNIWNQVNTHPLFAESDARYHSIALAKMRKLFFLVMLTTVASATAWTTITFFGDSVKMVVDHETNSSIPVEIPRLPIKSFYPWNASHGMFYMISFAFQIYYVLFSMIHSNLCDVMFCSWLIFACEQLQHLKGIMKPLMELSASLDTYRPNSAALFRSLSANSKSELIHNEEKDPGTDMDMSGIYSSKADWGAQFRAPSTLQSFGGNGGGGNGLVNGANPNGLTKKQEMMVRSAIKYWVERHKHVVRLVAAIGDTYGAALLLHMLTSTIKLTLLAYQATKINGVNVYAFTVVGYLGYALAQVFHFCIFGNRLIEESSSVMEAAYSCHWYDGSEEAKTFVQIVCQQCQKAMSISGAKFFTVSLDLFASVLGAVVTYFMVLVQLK
Procedure: (§1) Full-length cDNAs for mosquito (Anopheles gambiae) odorant receptor (OR1, OR2, OR7, OR8, OR28), and fly (Drosophila melanogaster) odorant receptor (Or47a, Or83b), mouse TRP channel (TRPM8), and mouse serotonin receptor (5HT3) were obtained and subcloned into mammalian expression vectors. The following mammalian expression vectors were used:
(§2) Stable cell lines Or47a/Or83b and 5HT3 were generated from Flip-In T-Rex cells. Flip-In T-Rex-based cell lines were cultured in DMEM supplemented with these additional antibiotics: 6 μg/mL blasticidin and 100 μg/mL hygromycin.
(§3) Cells were trypsinized and split into 35 mm dishes 1 day before transfection. Confluent cells (60-70%) in 35 mm dishes were co-transfected with 1 μg of Or47a/Or83b plasmid in pcDNA5/FRT/TO/IRES plus the pOG44 plasmid or 1 μg of 5HT3 plasmid in pcDNA5/FRT/TO plus the pOG44 plasmid using lipofectamine 2000. Co-transfection of pOG44 and pcDNA5/FRT/TO/IRES or pcDNA5/FRT/TO allows expression of Flp recombinase and integration of the pcDNA5 plasmid into the genome via the FRT site. After one day of incubation, the transfected cells were transferred into 10 cm dishes with DMEM containing antibiotics: 20 μg/mL of hygromycin and 6 μg/mL of blasticidin. The concentration of Hygromycin was increased to 100 μg/mL when the population of cells became 30-40% confluent. The cells were cultured by changing medium every two days until cell clumps appeared. The clumps were picked and transferred into 96 well plates with DMEM containing 100 μg/mL of Hygromycin and 6 μg/mL of blasticidin. The cells were grown and transferred to 24 well plates, and ligand-evoked calcium increases were tested using the Hamamatsu FDSS6000 real time fluorescence plate reader.
(§4) Stable cell lines were cultured in 10 cm dishes, and confluent cells (70-80%) were trypsinized. 10,000 cells/20 μL were transferred into each well of 384-well plates coated with poly-D-lysine, and cultured for 2 days. For Flip-In T-Rex cells (cell lines expressing Or47a/Or83b and 5HT3), 5 μL of tetracycline (5 μg/mL) were added 1 day before the assay. 20 μL of Ca-4 dye was loaded into each well for 1.5 hr at room temperature in the dark, and the dye-loaded plates were subjected to Ca^2+-imaging using a Hamamatsu FDSS6000 real time fluorescence plate reader. Odorant solutions (9× final concentration) were prepared by dissolving 1M stock solutions into Hank's Buffered Salt Solution (HBSS), and 30 μL of odor solution was transferred to each well in 384-well plates.
(§5) Compounds ([…] in DMSO) were stored in 384-well plates, and last two columns (32 wells total) contained only DMSO. 200 nL of small compounds were transferred into the odorant plates before the assay using the Perkin-Elmer Janus workstation. The odorant plates were spun down to remove air bubbles, and placed on the FDSS6000 plate loader, and 5 μL of odorant solution was applied to the cell plate on the FDSS6000. Ca^2+ increase was monitored with fluorescence at 525 nm by excitation at 485 nm.

[1] = biological target: T2, serotonin receptor (5HT3) (Mus musculus, UniProt P23979); test: Ca2+-imaging of stable Flip-In T-Rex cell line 5HT3; type: cell-based; settings: for IC50: read-out: IC50 5HT3; for inhibition at 4 µM: read-out: Percent Inhibition 5HT3
T2 construct: Full-length cDNAs for mosquito (Anopheles gambiae) odorant receptor; expressed in transfected cells
T2 sequence (P23979 24-489): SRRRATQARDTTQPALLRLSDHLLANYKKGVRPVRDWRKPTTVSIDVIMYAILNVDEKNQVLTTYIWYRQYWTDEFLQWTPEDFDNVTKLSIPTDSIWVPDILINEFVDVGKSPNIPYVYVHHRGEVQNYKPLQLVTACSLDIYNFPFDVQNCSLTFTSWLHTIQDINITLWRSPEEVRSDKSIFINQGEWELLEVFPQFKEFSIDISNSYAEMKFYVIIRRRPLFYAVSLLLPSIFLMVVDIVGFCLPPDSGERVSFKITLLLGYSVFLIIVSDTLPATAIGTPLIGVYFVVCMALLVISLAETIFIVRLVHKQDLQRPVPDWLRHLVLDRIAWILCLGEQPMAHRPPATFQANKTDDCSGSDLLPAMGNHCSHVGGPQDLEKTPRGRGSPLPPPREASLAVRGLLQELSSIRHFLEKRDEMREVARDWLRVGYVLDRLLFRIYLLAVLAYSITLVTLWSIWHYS
Procedure: as §1, §2, §3, §4, §5

[2] = ligand pentyl acetate 30 μM, read-out: IC50 OR47a OR83b

Row | Compound | inhibition at 4 µM (Or47a/Or83b; compound applied at 4 μM) [%] | inhibition at 4 µM ([1]; compound applied at 4 μM) [%] | IC50 (Or47a/Or83b; Table B, read-out: IC50 OR47a) [nM] | other results
1 | CCNc1nc(NC(C)C)nc(SC)n1 [RU-T3] |  |  |  | IC50 (Or47a/Or83b; [2]): 2000 to 20000 nM; IC50 ([1]; ligand serotonin 10 μM): 20000 to 50000 nM
2 | CC(C)N(Cc1nccn1Cc1c(F)cccc1Cl)C(=O)c1ccc(Cl)cc1 [RU-0055364] | 26 to 50 | < 25 |  | 
3 | C=CCN(Cc1nccn1Cc1cccc(F)c1)C(=O)c1ccccc1F [RU-I1] |  |  |  | IC50 (Or47a/Or83b; [2]): > 20000 nM; IC50 ([1]; ligand serotonin 10 μM): 20000 to 50000 nM
4 | CCn1c(C)c(C(=O)CN(CC2CCCO2)C(=O)C2C[C@H]2c2ccccc2)c(C)c1C(=O)OC (stereo partly shown) [RU-0071273] | 26 to 50 | 26 to 50 | > 1000 | 
5 | CCOC(=O)C1CCCN(C(=O)c2csc(CSc3nnc(-c4cccc(OC)c4)n3-c3ccc(C)cc3)n2)C1 (stereo not shown) [RU-0071628] | 51 to 74 | 26 to 50 | > 1000 | 
6 | COc1ccccc1C(=O)C1CCCN(C(=O)c2cccc(N3CCOCC3)c2)C1 (stereo not shown) [RU-0029350] | 51 to 74 | < 25 | < 100 | 
7 | Cc1cccc(Cn2ccnc2CN(C(=O)c2ccccc2F)C2CCCCC2)c1 [RU-0047851] | 26 to 50 | < 25 |  | 
8 | COc1cccc(-c2nnc(SCCCC(=O)N3CCN(C(=O)CC(C)(C)C)C(C)C3)n2-c2ccc(C)cc2)c1 (stereo not shown) [RU-0071818] | 26 to 50 | < 25 |  | 
9 | COCCCN(Cc1c(-c2ccccc2)noc1N1CCCC1)C(=O)c1ccc(F)cc1 [RU-0037386] | 51 to 74 | 26 to 50 | > 1000 | 
10 | COc1ccccc1CCC(=O)N1CCC(CCC(=O)Nc2ccccc2)CC1 [RU-0032455] | 51 to 74 | 26 to 50 | > 1000 | 
11 | O=C(Cc1cccc(F)c1)N1CCOC(COCc2c(Cl)cccc2Cl)C1 (stereo not shown) [RU-0050398] | 26 to 50 | < 25 |  | 
12 | Cc1ccccc1C(=O)N[C@@H]1CCCCC1NC(=O)C1CCN(C(=O)c2ccc(C(C)(C)C)cc2)CC1 (stereo partly shown) [RU-0045678] | 26 to 50 | 26 to 50 |  | 
13 | O=C(c1cccc(F)c1)N(Cc1c(-c2ccccc2)noc1N1CCCC1)CC1CCCO1 (stereo not shown) [RU-0037434] | 51 to 74 | 26 to 50 | > 1000 | 
14 | CCc1c(C(=O)NCc2cccnc2)cnn1-c1ccccc1 [RU-0048504] | 26 to 50 | < 25 |  | 
15 | CCN(CC)c1onc(-c2ccc(F)cc2)c1CN(CCCOC)C(=O)c1ccc2c(c1)OCO2 [RU-0036983] | 51 to 74 | 26 to 50 | > 1000 | 
16 | COc1cccc(NC(=O)CCC2CCN(C(=O)CSc3ccccc3)CC2)c1 [RU-0032474] | 51 to 74 | < 25 | > 1000 | 
17 | COc1ccc(-n2c(Cc3ccccc3)nnc2SCCCC(=O)N2CCN(C(=O)c3ccc(C(F)(F)F)cc3)C(C)C2)cc1 (stereo not shown) [RU-0071828] | 26 to 50 | 26 to 50 |  | 
18 | CCc1cc(N2CCCC2)nc(SCc2ccc(C(=O)N3CCOCC3)o2)n1 [RU-0047568] | 26 to 50 | 26 to 50 |  | 

Row | Compound | inhibition at 4 µM (Or47a/Or83b; compound applied at 4 μM) [%] | inhibition at 4 µM ([1]; compound applied at 4 μM) [%] | IC50 (Or47a/Or83b; Table B, read-out: IC50 OR47a) [nM] | other results
19 | COCCCN(Cc1c(-c2ccccc2)noc1N(C)C(C)C)C(=O)c1ccccc1OC [RU-0037003] | < 25 | 26 to 50 |  | 
20 | O=C(C1CCCC1)N(Cc1nccn1CCc1c(F)cccc1Cl)C1CC1 [RU-I2] |  |  |  | IC50 (Or47a/Or83b; [2]): < 2000 nM; IC50 ([1]; ligand serotonin 10 μM): 2000 to 20000 nM
21 | Fc1ccccc1/C=N/Nc1nc(N2CCCCC2)nc(N2CCOCC2)n1 [RU-0018338] | 51 to 74 | 26 to 50 | < 100 | 
22 | N#Cc1ccccc1C(=O)N1CCOC(COCc2c(Cl)cccc2Cl)C1 (stereo not shown) [RU-0050405] | 51 to 74 | < 25 | > 1000 | 
23 | CN(C)c1ccc(C(=O)N2CCOC(COCc3ccccc3F)C2)cc1 (stereo not shown) [RU-0050325] | 26 to 50 | < 25 | > 1000 | 
24 | COCCN(Cc1c(-c2ccccc2)noc1N1CCSCC1)CC(O)COCc1ccco1 (stereo not shown) [RU-0037278] | 51 to 74 | 26 to 50 | > 1000 | 
25 | CC(C)CN(Cc1nccn1Cc1ccc(Cl)cc1Cl)C(=O)c1ccccc1F [RU-0055322] | 26 to 50 | < 25 |  | 
26 | CCNc1nc(NCC)nc(SC)n1 [RU-T4] |  |  |  | IC50 (Or47a/Or83b; [2]): > 20000 nM; IC50 ([1]; ligand serotonin 10 μM): 20000 to 50000 nM
27 | CCN(CC)c1onc(-c2ccccc2)c1CN(CC1CCCO1)C(=O)c1ccco1 (stereo not shown) [RU-0036855] | 26 to 50 | < 25 |  | 
28 | CCOC(=O)c1c(NC(C)=O)c(-c2ccc(OC)cc2)cn1Cc1ccccc1 [RU-0077733] | 26 to 50 | < 25 |  | 
29 | CCN(CC)C(=O)Oc1ccc2c(ccn2Cc2ccccc2Cl)c1NC(=O)CCCCC(=O)OC [RU-0075446] |  |  |  | inhibition at 4 µM (Or47a/Or83b): < 25%; inhibition at 4 µM [1]: 26 to 50%
30 | CCNc1nc(NC(C)C)nc(N(C#N)Cc2ccccc2)n1 [RU-0015806] | 51 to 74 | 51 to 74 | < 100 | IC50 ([1]; Table B): > 1000 nM
31 | O=C(C1CCC1)N(Cc1ccco1)Cc1nccn1Cc1ccccc1Cl [RU-0048066] | 26 to 50 | < 25 |  | 
32 | COCCN(Cc1c(-c2ccccc2)noc1N(C)C1CCCCC1)C(=O)c1ccccc1OC [RU-0037275] | 51 to 74 | 26 to 50 | > 1000 | 
33 | Cc1ccccc1C(=O)N[C@@H]1CCCCC1NC(=O)C1CCN(C(=O)c2cc(C(F)(F)F)cc(C(F)(F)F)c2)CC1 (stereo partly shown) [RU-0045778] | 26 to 50 | 26 to 50 |  | 
34 | Fc1cccc(Cl)c1Cn1ccnc1CN(CC1CCCC1)C1CC1 [RU-I4] |  |  |  | IC50 (Or47a/Or83b; [2]): > 20000 nM; IC50 ([1]; ligand serotonin 10 μM): > 20000 nM
35 | CC(C)Nc1nc(Cl)nc(NC(C)C)n1 [RU-T1] |  |  |  | IC50 (Or47a/Or83b; [2]): > 20000 nM; IC50 ([1]; ligand serotonin 10 μM): > 20000 nM
